Data from paper PMC11864979, “First-in-class ultralong-target-residence-time p38α inhibitors as a mitosis-targeted therapy for colorectal cancer” (Nature Cancer, 2025).
Like-named read-outs stand apart in the source and are kept apart here.

What was measured:
Test in all cases: selectivity profiling in a panel of 340 wild-type kinases (Reaction Biology Europe)
Assay type in all cases: binding
[1] = biological target: T1, 340 wild-type kinases (Homo sapiens, UniProt Q9UEW8)
T1 construct: purchased Reaction Biology Europe

[2] = biological target: T2, 340 wild-type kinases (Homo sapiens, UniProt P53667)
T2 construct: purchased Reaction Biology Europe

[3] = biological target: T3, 340 wild-type kinases (Homo sapiens, UniProt Q9HBH9)
T3 construct: purchased Reaction Biology Europe

[4] = biological target: T4, 340 wild-type kinases (Homo sapiens, UniProt P48729)
T4 construct: purchased Reaction Biology Europe

[5] = biological target: T5, 340 wild-type kinases (Homo sapiens, UniProt Q00526)
T5 construct: purchased Reaction Biology Europe

[6] = biological target: T6, 340 wild-type kinases (Homo sapiens, UniProt Q13153)
T6 construct: purchased Reaction Biology Europe

[7] = biological target: T7, 340 wild-type kinases (Homo sapiens, UniProt Q9UKI8)
T7 construct: purchased Reaction Biology Europe
T7 sequence (Q9UKI8 1-766): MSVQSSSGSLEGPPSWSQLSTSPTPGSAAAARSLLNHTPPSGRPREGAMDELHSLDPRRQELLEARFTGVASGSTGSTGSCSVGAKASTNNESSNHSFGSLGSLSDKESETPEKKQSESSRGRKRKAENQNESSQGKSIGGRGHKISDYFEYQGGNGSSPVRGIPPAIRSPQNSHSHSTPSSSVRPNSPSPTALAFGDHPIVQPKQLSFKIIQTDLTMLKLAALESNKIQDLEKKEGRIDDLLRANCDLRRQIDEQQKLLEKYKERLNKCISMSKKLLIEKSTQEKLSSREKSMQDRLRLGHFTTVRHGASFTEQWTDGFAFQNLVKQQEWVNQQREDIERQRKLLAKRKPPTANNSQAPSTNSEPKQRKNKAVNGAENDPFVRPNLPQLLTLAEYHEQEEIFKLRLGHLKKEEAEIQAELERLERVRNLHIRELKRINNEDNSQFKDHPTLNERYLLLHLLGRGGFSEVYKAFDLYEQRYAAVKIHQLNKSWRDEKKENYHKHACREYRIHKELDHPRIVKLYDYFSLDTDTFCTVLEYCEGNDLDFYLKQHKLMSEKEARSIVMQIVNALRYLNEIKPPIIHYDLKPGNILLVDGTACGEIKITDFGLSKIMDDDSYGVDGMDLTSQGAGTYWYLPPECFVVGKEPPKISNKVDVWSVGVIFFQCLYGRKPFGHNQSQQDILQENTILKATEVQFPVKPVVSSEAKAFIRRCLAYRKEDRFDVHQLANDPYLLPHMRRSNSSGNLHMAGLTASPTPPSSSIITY

[8] = biological target: T8, 340 wild-type kinases (Homo sapiens, UniProt P49759)
T8 construct: purchased Reaction Biology Europe

[9] = biological target: T9, 340 wild-type kinases (Homo sapiens, UniProt Q9UBS0)
T9 construct: purchased Reaction Biology Europe

[10] = biological target: T10, 340 wild-type kinases (Homo sapiens, UniProt Q13557)
T10 construct: purchased Reaction Biology Europe

[11] = biological target: T11, 340 wild-type kinases (Homo sapiens, UniProt P29317)
T11 construct: purchased Reaction Biology Europe

[12] = biological target: T12, 340 wild-type kinases (Homo sapiens, UniProt P51812)
T12 construct: purchased Reaction Biology Europe
T12 sequence (P51812 whole entry): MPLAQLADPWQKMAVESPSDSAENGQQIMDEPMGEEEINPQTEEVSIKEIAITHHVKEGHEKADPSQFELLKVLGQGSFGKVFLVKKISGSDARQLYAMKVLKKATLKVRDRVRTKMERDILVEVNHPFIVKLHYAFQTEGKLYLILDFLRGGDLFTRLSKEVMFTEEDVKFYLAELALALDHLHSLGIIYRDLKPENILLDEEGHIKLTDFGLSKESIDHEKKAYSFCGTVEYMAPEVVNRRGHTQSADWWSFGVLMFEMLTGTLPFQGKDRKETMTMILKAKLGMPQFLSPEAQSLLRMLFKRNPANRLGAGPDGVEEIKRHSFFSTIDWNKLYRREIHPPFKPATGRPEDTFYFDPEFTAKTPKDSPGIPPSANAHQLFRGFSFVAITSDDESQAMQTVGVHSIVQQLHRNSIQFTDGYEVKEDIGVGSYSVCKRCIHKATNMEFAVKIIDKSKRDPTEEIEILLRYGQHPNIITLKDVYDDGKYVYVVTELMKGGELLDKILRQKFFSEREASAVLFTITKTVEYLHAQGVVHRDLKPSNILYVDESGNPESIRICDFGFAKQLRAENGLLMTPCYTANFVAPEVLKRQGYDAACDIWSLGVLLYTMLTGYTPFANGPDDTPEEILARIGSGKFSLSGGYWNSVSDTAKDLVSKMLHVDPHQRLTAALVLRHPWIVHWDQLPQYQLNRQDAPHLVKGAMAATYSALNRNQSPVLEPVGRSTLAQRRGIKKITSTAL

T6 sequence (Q13153 whole entry): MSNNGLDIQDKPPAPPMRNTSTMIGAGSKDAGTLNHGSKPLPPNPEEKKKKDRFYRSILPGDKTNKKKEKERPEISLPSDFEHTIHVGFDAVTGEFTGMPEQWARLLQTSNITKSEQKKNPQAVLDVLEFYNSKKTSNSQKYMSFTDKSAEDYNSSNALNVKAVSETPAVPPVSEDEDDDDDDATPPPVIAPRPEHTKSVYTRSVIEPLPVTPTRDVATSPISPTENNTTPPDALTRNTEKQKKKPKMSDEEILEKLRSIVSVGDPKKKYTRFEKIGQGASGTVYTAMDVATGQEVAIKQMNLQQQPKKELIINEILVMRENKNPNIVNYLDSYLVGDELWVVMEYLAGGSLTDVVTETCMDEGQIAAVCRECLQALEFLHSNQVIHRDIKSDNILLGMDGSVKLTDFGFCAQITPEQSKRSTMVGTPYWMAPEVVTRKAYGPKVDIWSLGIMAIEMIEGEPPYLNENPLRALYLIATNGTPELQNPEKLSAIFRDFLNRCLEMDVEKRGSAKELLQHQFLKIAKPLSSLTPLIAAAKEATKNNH
T10 sequence (Q13557 whole entry): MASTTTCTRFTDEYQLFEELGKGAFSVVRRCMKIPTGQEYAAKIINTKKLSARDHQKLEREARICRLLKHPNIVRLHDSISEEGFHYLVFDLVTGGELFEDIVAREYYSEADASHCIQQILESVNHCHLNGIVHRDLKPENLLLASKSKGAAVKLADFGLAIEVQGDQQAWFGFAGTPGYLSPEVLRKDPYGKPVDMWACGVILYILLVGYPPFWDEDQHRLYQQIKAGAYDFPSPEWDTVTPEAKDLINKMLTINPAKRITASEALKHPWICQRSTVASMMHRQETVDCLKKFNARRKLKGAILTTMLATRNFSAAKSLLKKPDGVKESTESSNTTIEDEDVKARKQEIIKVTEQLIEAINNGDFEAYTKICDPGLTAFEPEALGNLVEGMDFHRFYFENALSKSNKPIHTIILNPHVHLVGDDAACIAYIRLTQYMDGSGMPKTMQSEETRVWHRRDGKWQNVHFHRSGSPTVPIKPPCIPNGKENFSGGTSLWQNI
T4 sequence (P48729 whole entry): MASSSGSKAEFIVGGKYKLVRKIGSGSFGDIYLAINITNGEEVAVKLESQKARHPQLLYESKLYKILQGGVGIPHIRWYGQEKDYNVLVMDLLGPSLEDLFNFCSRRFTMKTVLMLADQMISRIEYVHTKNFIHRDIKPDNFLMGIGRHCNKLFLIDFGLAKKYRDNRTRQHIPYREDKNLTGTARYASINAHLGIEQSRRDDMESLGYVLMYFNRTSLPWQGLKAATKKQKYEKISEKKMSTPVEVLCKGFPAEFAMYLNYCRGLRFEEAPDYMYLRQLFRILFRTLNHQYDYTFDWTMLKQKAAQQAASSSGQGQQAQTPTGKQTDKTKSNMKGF
T9 sequence (Q9UBS0 whole entry): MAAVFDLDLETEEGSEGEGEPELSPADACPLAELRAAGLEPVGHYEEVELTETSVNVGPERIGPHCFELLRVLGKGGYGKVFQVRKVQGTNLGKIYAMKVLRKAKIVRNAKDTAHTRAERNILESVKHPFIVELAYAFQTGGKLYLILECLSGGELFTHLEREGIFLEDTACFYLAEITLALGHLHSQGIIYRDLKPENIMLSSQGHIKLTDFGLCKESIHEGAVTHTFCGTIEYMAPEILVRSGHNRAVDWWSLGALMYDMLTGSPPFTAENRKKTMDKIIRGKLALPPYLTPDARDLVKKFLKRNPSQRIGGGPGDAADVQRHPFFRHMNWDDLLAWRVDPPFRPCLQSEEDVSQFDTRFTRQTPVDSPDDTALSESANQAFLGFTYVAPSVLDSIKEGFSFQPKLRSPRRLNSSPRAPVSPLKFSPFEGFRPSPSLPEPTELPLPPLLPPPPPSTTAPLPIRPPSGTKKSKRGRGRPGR
T5 sequence (Q00526 whole entry): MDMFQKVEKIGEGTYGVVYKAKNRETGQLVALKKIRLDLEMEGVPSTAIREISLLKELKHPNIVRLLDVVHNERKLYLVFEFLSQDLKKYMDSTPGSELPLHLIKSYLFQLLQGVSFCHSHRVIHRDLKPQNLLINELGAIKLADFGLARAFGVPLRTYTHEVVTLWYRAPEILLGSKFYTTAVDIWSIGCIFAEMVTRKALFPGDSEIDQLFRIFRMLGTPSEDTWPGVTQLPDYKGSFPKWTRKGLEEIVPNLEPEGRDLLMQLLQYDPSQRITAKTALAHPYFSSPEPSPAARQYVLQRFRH
T3 sequence (Q9HBH9 whole entry): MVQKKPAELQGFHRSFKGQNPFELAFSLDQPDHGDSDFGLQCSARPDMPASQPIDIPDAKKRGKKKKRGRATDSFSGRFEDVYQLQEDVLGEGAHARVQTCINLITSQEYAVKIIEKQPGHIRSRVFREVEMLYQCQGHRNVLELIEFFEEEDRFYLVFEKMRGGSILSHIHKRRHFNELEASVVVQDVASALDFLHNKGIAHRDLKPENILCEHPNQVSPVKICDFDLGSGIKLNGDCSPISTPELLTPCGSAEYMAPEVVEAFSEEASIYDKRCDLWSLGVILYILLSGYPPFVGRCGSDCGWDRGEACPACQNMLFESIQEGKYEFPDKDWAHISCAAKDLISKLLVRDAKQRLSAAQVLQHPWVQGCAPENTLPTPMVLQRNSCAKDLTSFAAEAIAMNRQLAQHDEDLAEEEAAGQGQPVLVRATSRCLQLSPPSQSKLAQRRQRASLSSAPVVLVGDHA
T8 sequence (P49759 whole entry): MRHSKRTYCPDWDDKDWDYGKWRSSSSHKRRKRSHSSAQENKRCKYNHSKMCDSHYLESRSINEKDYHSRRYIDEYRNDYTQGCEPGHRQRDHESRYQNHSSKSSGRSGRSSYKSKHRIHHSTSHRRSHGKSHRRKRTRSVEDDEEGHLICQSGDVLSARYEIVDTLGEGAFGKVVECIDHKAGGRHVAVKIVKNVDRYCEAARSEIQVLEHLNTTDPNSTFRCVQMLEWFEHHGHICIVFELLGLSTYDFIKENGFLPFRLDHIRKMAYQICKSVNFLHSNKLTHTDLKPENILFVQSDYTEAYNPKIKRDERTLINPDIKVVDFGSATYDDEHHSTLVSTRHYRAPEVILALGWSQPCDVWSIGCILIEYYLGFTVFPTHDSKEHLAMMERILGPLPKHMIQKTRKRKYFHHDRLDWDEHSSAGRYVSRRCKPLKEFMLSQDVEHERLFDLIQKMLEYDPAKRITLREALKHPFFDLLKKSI
T11 sequence (P29317 24-976): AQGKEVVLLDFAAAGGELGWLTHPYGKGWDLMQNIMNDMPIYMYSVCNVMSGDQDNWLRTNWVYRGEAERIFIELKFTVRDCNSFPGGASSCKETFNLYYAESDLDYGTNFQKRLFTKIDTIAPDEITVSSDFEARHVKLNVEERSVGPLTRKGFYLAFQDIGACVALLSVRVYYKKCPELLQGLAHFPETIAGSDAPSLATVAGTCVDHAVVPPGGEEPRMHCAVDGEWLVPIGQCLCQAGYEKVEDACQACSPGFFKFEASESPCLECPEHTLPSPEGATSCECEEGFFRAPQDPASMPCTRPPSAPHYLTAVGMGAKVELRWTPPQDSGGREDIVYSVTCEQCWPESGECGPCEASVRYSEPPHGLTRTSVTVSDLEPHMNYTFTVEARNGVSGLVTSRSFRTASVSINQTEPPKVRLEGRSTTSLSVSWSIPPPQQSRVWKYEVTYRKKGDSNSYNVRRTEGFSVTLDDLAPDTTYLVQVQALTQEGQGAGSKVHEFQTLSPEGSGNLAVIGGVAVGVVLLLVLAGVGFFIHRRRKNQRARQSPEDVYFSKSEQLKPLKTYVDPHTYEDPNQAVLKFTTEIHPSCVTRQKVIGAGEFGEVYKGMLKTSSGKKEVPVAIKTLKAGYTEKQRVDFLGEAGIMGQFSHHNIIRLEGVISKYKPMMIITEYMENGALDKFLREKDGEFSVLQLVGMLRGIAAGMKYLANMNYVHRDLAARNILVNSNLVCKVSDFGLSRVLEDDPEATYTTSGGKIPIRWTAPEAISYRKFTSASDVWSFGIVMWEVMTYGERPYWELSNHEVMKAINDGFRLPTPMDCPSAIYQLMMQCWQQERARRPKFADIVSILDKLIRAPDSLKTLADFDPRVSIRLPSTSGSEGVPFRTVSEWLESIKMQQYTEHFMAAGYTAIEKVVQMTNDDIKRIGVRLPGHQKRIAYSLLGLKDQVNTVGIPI

CNC(=O)c1ccc2c(c1)C(=O)c1ccc(Nc3ccc(F)c(NC(=O)C4CC4)c3)cc1CC2 [Compound 2015]
remaining activity at 0.2 µM ([1]; 0.2 µM 2015, read-out: STK39 residual activity): 109% | remaining activity at 1 µM ([1]; 1 µM 2015, read-out: STK39 residual activity): 108% | remaining activity at 0.2 µM ([1]; STK39, 0.2 µM, read-out: residual activity): 109% | remaining activity at 1 µM ([1]; STK39, 1 µM, read-out: residual activity): 108% | remaining activity at 0.2 µM ([2]; 0.2 µM 2015, read-out: LIMK1 residual activity): 102% | remaining activity at 1 µM ([2]; 1 µM 2015, read-out: LIMK1 residual activity): 92.9% | remaining activity at 0.2 µM ([2]; LIMK1, 0.2 µM, read-out: residual activity): 102% | remaining activity at 1 µM ([2]; LIMK1, 1 µM, read-out: residual activity): 92.9% | remaining activity at 0.2 µM ([3]; 0.2 µM 2015, read-out: MKNK2 residual activity): 105% | remaining activity at 1 µM ([3]; 1 µM 2015, read-out: MKNK2 residual activity): 102% | remaining activity at 0.2 µM ([3]; MKNK2, 0.2 µM, read-out: residual activity): 105% | remaining activity at 1 µM ([3]; MKNK2, 1 µM, read-out: residual activity): 102% | remaining activity at 0.2 µM ([4]; 0.2 µM 2015, read-out: CK1alpha1 residual activity): 98.6% | remaining activity at 0.2 µM ([4]; CK1alpha1, 0.2 µM, read-out: residual activity): 98.6% | remaining activity at 1 µM ([4]; CK1alpha1, 1 µM, read-out: residual activity): 94.9% | remaining activity at 0.2 µM ([5]; 0.2 µM 2015, read-out: CDK3/CycC residual activity): 104% | remaining activity at 0.2 µM ([5]; 0.2 µM 2015, read-out: CDK3/CycE1 residual activity): 88.9% | remaining activity at 1 µM ([5]; 1 µM 2015, read-out: CDK3/CycC residual activity): 96.3% | remaining activity at 1 µM ([5]; 1 µM 2015, read-out: CDK3/CycE1 residual activity): 81.7% | remaining activity at 0.2 µM ([5]; CDK3/CycC, 0.2 µM, read-out: residual activity): 104% | remaining activity at 1 µM ([5]; CDK3/CycC, 1 µM, read-out: residual activity): 96.3% | remaining activity at 0.2 µM ([5]; CDK3/CycE1, 0.2 µM, read-out: residual activity): 88.9% | remaining activity at 1 µM ([5]; CDK3/CycE1, 1 µM, read-out: residual activity): 81.7% | remaining activity at 0.2 µM ([6]; 0.2 µM 2015, read-out: PAK1 residual activity): 94.7% | remaining activity at 1 µM ([6]; 1 µM 2015, read-out: PAK1 residual activity): 79.5% | remaining activity at 0.2 µM ([6]; PAK1, 0.2 µM, read-out: residual activity): 94.7% | remaining activity at 1 µM ([6]; PAK1, 1 µM, read-out: residual activity): 79.5% | remaining activity at 0.2 µM ([7]; 0.2 µM 2015, read-out: TLK1 residual activity): 122% | remaining activity at 1 µM ([7]; 1 µM 2015, read-out: TLK1 residual activity): 105% | remaining activity at 0.2 µM ([7]; TLK1, 0.2 µM, read-out: residual activity): 122% | remaining activity at 1 µM ([7]; TLK1, 1 µM, read-out: residual activity): 105% | remaining activity at 0.2 µM ([8]; 0.2 µM 2015, read-out: CLK1 residual activity): 98.6% | remaining activity at 1 µM ([8]; 1 µM 2015, read-out: CLK1 residual activity): 93% | remaining activity at 0.2 µM ([8]; CLK1, 0.2 µM, read-out: residual activity): 98.6% | remaining activity at 1 µM ([8]; CLK1, 1 µM, read-out: residual activity): 93% | remaining activity at 0.2 µM ([9]; 0.2 µM 2015, read-out: S6Kbeta residual activity): 108% | remaining activity at 1 µM ([9]; 1 µM 2015, read-out: S6Kbeta residual activity): 109% | remaining activity at 0.2 µM ([9]; S6Kbeta, 0.2 µM, read-out: residual activity): 108% | remaining activity at 1 µM ([9]; S6Kbeta, 1 µM, read-out: residual activity): 109% | remaining activity at 0.2 µM ([10]; 0.2 µM 2015, read-out: CAMK2D residual activity): 98.1% | remaining activity at 1 µM ([10]; 1 µM 2015, read-out: CAMK2D residual activity): 95.7% | remaining activity at 0.2 µM ([10]; CAMK2D, 0.2 µM, read-out: residual activity): 98.1% | remaining activity at 1 µM ([10]; CAMK2D, 1 µM, read-out: residual activity): 95.7% | remaining activity at 0.2 µM ([11]; 0.2 µM 2015, read-out: EPHA2 residual activity): 98.4% | remaining activity at 1 µM ([11]; 1 µM 2015, read-out: EPHA2 residual activity): 102% | remaining activity at 0.2 µM ([11]; EPHA2, 0.2 µM, read-out: residual activity): 98.4% | remaining activity at 1 µM ([11]; EPHA2, 1 µM, read-out: residual activity): 102% | remaining activity at 0.2 µM ([12]; 0.2 µM 2015, read-out: RPS6KA3 residual activity): 107% | remaining activity at 1 µM ([12]; 1 µM 2015, read-out: RPS6KA3 residual activity): 103% | remaining activity at 0.2 µM ([12]; RPS6KA3, 0.2 µM, read-out: residual activity): 107% | remaining activity at 1 µM ([12]; RPS6KA3, 1 µM, read-out: residual activity): 103%
